According to patent US12091411B2, “IRAK degraders and uses thereof” (Kymera Therapeutics, Inc., priority 2022, dated 2024):
Read-outs that look alike come from different tables or passages of the source.

Target: T1, IRAK4 (Homo sapiens, UniProt Q9NWZ3)
T1 construct: Degradation of IRAK4 in OCI-LY10 was quantitatively measured using Meso Scale Discovery technology; endogenous in cells; host or cells: OCI-LY10
T1 sequence (Q9NWZ3 1-460): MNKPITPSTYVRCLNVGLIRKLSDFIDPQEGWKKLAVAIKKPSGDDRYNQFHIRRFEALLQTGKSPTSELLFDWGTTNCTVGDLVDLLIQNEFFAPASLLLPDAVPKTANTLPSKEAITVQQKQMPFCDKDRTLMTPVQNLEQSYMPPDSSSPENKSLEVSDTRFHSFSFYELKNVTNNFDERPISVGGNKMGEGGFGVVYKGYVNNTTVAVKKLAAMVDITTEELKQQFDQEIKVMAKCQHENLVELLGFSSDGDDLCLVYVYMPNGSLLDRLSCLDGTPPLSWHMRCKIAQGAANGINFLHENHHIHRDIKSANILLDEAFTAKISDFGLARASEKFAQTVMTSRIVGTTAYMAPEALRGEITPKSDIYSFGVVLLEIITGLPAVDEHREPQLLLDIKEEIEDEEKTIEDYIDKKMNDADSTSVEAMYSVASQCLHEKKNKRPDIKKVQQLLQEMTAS
Assay: IRAK4 MSD Degradation in OCI-LY10
Type: cell-based
Conditions: OCI-LY10 cells, MSD
How it was run: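 OCI-LY10 cells exposed to 8-point 1:3 compound series (top 1 to 10 μM) for 4 to 24 h at 37 °C, 5% CO2. Lysate IRAK4 quantified by MSD sandwich immunoassay. DC50 from three-parameter logistic fit, binned A (<0.01 μM) to D (>0.2 μM or not tested).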

[1] = 4 hrs incubation, read-out: IRAK4 degradation in OCI-LY10 at 4 hrs: DC50
[2] = 24 hrs incubation, read-out: IRAK4 degradation in OCI-LY10 at 24 hrs: DC50

SMILES | DC50 [1] [µM] | DC50 [2] [µM]
Cn1c(=O)n(C2CCC(=O)NC2=O)c2cccc(N3CCC(F)(CN4CC5(CCC(n6cc7cc(NC(=O)c8cccc(C(F)(F)F)n8)c(C#N)cc7n6)CC5)C4)CC3)c21 (stereo not shown) [I-567] | > 0.2 | > 0.2
Cn1c(=O)n(C2CCC(=O)NC2=O)c2ccc(C3CCN(C[C@H]4CC[C@H](n5cc6cc(NC(=O)c7cccc(C(F)(F)F)n7)c(C#N)cc6n5)CC4)CC3(F)F)cc21 (stereo partly shown) [I-568] | > 0.2 | > 0.2
Cn1c(=O)n(C2CCC(=O)NC2=O)c2ccc(C3CCN(C[C@H]4CC[C@H](n5cc6cc(NC(=O)c7cccc(C(F)(F)F)n7)c(C(F)F)cc6n5)CC4)CC3(F)F)cc21 (stereo partly shown) [I-569] | > 0.2 | > 0.2
CN(C[C@H]1CC[C@H](n2cc(NC(=O)c3cnn4cccnc34)c(C(F)F)n2)CC1)C1CCN(c2ccc3c(c2)n(C)c(=O)n3C2CCC(=O)NC2=O)CC1(F)F (stereo partly shown) [I-570] | > 0.2 | –
Cn1c(=O)n(C2CCC(=O)NC2=O)c2cccc([C@H]3C[C@H](COC4CCN(C[C@H]5CC[C@H](n6cc(NC(=O)c7cnn8ccc(N9C[C@H]%10C[C@@H]9CO%10)nc78)c(C(F)F)n6)CC5)CC4F)C3)c21 (stereo partly shown) [I-571] | > 0.2 | > 0.2
Cn1c(=O)n(C2CCC(=O)NC2=O)c2cccc([C@H]3C[C@H](CN4CCN(C[C@H]5CC[C@H](n6cc(NC(=O)c7cnn8cccnc78)c(C(F)F)n6)CC5)CC4)C3)c21 (stereo partly shown) [I-572] | > 0.2 | > 0.2
Cn1c(=O)n(C2CCC(=O)NC2=O)c2cccc([C@H]3C[C@@H]3CN3CCN(C[C@H]4CC[C@H](n5cc(NC(=O)c6cnn7ccc(N8C[C@H]9CC8CO9)nc67)c(C(F)F)n5)CC4)CC3)c21 (stereo partly shown) [I-573] | > 0.2 | > 0.2
Cn1c(=O)n(C2CCC(=O)NC2=O)c2cccc([C@H]3C[C@](F)(CN4CCN(C[C@H]5CC[C@H](n6cc(NC(=O)c7cnn8ccc(N9C[C@H]%10CC9CO%10)nc78)c(C(F)F)n6)CC5)CC4)C3)c21 (stereo partly shown) [I-574] | > 0.2 | > 0.2
C[C@@H]([C@H]1C[C@H](c2cccc3c2n(C)c(=O)n3C2CCC(=O)NC2=O)C1)N1CCN(C[C@H]2CC[C@H](n3cc(NC(=O)c4cnn5ccc(N6C[C@H]7CC6CO7)nc45)c(C(F)F)n3)CC2)CC1 (stereo partly shown) [I-575] | > 0.2 | > 0.2
Cn1c(=O)n(C2CCC(=O)NC2=O)c2cccc(C[C@H]3C[C@H](N4CCN(C[C@H]5CC[C@H](n6cc(NC(=O)c7cnn8ccc(N9C[C@H]%10CC9CO%10)nc78)c(C(F)F)n6)CC5)CC4)C3)c21 (stereo partly shown) [I-576] | > 0.2 | < 0.01
Cn1c(=O)n(C2CCC(=O)NC2=O)c2cccc(O[C@H]3C[C@H](N4CCN(C[C@H]5CC[C@H](n6cc(NC(=O)c7cnn8ccc(N9C[C@H]%10CC9CO%10)nc78)c(C(F)F)n6)CC5)CC4)C3)c21 (stereo partly shown) [I-577] | > 0.2 | > 0.2
CO[C@]1(CN2CCN(C[C@H]3CC[C@H](n4cc(NC(=O)c5cnn6ccc(N7C[C@H]8CC7CO8)nc56)c(C(F)F)n4)CC3)CC2)C[C@H](c2cccc3c2n(C)c(=O)n3C2CCC(=O)NC2=O)C1 (stereo partly shown) [I-579] | > 0.2 | > 0.2
Cn1c(=O)n(C2CCC(=O)NC2=O)c2cccc([C@H]3C[C@](O)(CN4CCN(C[C@H]5CC[C@H](n6cc(NC(=O)c7cnn8ccc(N9C[C@H]%10CC9CO%10)nc78)c(C(F)F)n6)CC5)CC4)C3)c21 (stereo partly shown) [I-580] | > 0.2 | < 0.01
Cn1c(=O)n(C2CCC(=O)NC2=O)c2cccc(N3CC(O[C@@H]4CCN(C[C@H]5CC[C@H](n6cc(NC(=O)c7cnn8ccc(N9C[C@H]%10C[C@@H]9CO%10)nc78)c(C(F)F)n6)CC5)C[C@@H]4F)C3)c21 (stereo partly shown) [I-581] | > 0.2 | < 0.01
Cn1c(=O)n(C2CCC(=O)NC2=O)c2cccc(N3CC(O[C@@H]4CCN(C[C@H]5CC[C@H](n6cc(NC(=O)c7cnn8ccc(N9C[C@H]%10C[C@@H]9CO%10)nc78)c(C(F)F)n6)CC5)C[C@H]4F)C3)c21 (stereo partly shown) [I-582] | > 0.2 | > 0.2
Cn1c(=O)n(C2CCC(=O)NC2=O)c2cccc(N3CC(O[C@H]4CCN(C[C@H]5CC[C@H](n6cc(NC(=O)c7cnn8ccc(N9C[C@H]%10C[C@@H]9CO%10)nc78)c(C(F)F)n6)CC5)C[C@@H]4F)C3)c21 (stereo partly shown) [I-583] | > 0.2 | > 0.2
Cn1c(=O)n(C2CCC(=O)NC2=O)c2cccc(N3CC(O[C@H]4CCN(C[C@H]5CC[C@H](n6cc(NC(=O)c7cnn8ccc(N9C[C@H]%10C[C@@H]9CO%10)nc78)c(C(F)F)n6)CC5)C[C@H]4F)C3)c21 (stereo partly shown) [I-584] | > 0.2 | > 0.2

SMILES | DC50 [1] [µM] | DC50 [2] [µM]
Cn1c(=O)n(C2CCC(=O)NC2=O)c2cccc(N3CC(CO[C@@H]4CCN(C[C@H]5CC[C@H](n6cc(NC(=O)c7cnn8ccc(N9C[C@H]%10CC9CO%10)nc78)c(C(F)F)n6)CC5)C[C@@H]4F)C3)c21 (stereo partly shown) [I-585] | > 0.2 | < 0.01
Cn1c(=O)n(C2CCC(=O)NC2=O)c2cccc(N3CC(CO[C@@H]4CCN(C[C@H]5CC[C@H](n6cc(NC(=O)c7cnn8ccc(N9C[C@H]%10CC9CO%10)nc78)c(C(F)F)n6)CC5)C[C@H]4F)C3)c21 (stereo partly shown) [I-586] | > 0.2 | < 0.01
Cn1c(=O)n(C2CCC(=O)NC2=O)c2cccc(N3CC(CO[C@H]4CCN(C[C@H]5CC[C@H](n6cc(NC(=O)c7cnn8ccc(N9C[C@H]%10CC9CO%10)nc78)c(C(F)F)n6)CC5)C[C@@H]4F)C3)c21 (stereo partly shown) [I-587] | > 0.2 | < 0.01
Cn1c(=O)n(C2CCC(=O)NC2=O)c2cccc(N3CC(CO[C@H]4CCN(C[C@H]5CC[C@H](n6cc(NC(=O)c7cnn8ccc(N9C[C@H]%10CC9CO%10)nc78)c(C(F)F)n6)CC5)C[C@H]4F)C3)c21 (stereo partly shown) [I-588] | > 0.2 | < 0.01
Cn1c(=O)n(C2CCC(=O)NC2=O)c2cccc(C#CCO[C@@H]3CCN(C[C@H]4CC[C@H](n5cc(NC(=O)c6cnn7ccc(N8CCS(=O)(=O)CC8)nc67)c(C(F)F)n5)CC4)C[C@@H]3F)c21 (stereo partly shown) [I-589] | > 0.2 | > 0.2
Cn1c(=O)n(C2CCC(=O)NC2=O)c2cccc(C#CCO[C@@H]3CCN(C[C@H]4CC[C@H](n5cc(NC(=O)c6cnn7ccc(N8CCS(=O)(=O)CC8)nc67)c(C(F)F)n5)CC4)C[C@H]3F)c21 (stereo partly shown) [I-590] | > 0.2 | > 0.2
Cn1c(=O)n(C2CCC(=O)NC2=O)c2cccc(C#CCO[C@H]3CCN(C[C@H]4CC[C@H](n5cc(NC(=O)c6cnn7ccc(N8CCS(=O)(=O)CC8)nc67)c(C(F)F)n5)CC4)C[C@@H]3F)c21 (stereo partly shown) [I-591] | > 0.2 | > 0.2
Cn1c(=O)n(C2CCC(=O)NC2=O)c2cccc(C#CCO[C@H]3CCN(C[C@H]4CC[C@H](n5cc(NC(=O)c6cnn7ccc(N8CCS(=O)(=O)CC8)nc67)c(C(F)F)n5)CC4)C[C@H]3F)c21 (stereo partly shown) [I-592] | > 0.2 | > 0.2
Cn1c(=O)n(C2CCC(=O)NC2=O)c2cccc([C@H]3C[C@H](O[C@@H]4CCN(C[C@H]5CC[C@H](n6cc(NC(=O)c7cnn8ccc(N9C[C@H]%10C[C@@H]9CO%10)nc78)c(C(F)F)n6)CC5)C[C@@H]4F)C3)c21 (stereo partly shown) [I-593] | > 0.2 | > 0.2
Cn1c(=O)n(C2CCC(=O)NC2=O)c2cccc([C@H]3C[C@H](O[C@@H]4CCN(C[C@H]5CC[C@H](n6cc(NC(=O)c7cnn8ccc(N9C[C@H]%10C[C@@H]9CO%10)nc78)c(C(F)F)n6)CC5)C[C@H]4F)C3)c21 (stereo partly shown) [I-594] | > 0.2 | > 0.2
Cn1c(=O)n(C2CCC(=O)NC2=O)c2cccc([C@H]3C[C@H](O[C@H]4CCN(C[C@H]5CC[C@H](n6cc(NC(=O)c7cnn8ccc(N9C[C@H]%10C[C@@H]9CO%10)nc78)c(C(F)F)n6)CC5)C[C@@H]4F)C3)c21 (stereo partly shown) [I-595] | > 0.2 | > 0.2
Cn1c(=O)n(C2CCC(=O)NC2=O)c2cccc([C@H]3C[C@H](O[C@H]4CCN(C[C@H]5CC[C@H](n6cc(NC(=O)c7cnn8ccc(N9C[C@H]%10C[C@@H]9CO%10)nc78)c(C(F)F)n6)CC5)C[C@H]4F)C3)c21 (stereo partly shown) [I-596] | > 0.2 | > 0.2
Cn1c(=O)n(C2CCC(=O)NC2=O)c2cccc([C@H]3C[C@@H](COC4CN(C[C@H]5CC[C@H](n6cc(NC(=O)c7cnn8ccc(N9C[C@H]%10C[C@@H]9CO%10)nc78)c(C(F)F)n6)CC5)C4)C3)c21 (stereo partly shown) [I-597] | > 0.2 | < 0.01
Cn1c(=O)n(C2CCC(=O)NC2=O)c2cccc([C@H]3C[C@H](COC4CN(C[C@H]5CC[C@H](n6cc(NC(=O)c7cnn8ccc(N9C[C@H]%10C[C@@H]9CO%10)nc78)c(C(F)F)n6)CC5)C4)C3)c21 (stereo partly shown) [I-598] | > 0.2 | < 0.01
Cn1c(=O)n(C2CCC(=O)NC2=O)c2cccc(N3CC(COC4CN(C[C@H]5CC[C@H](n6cc(NC(=O)c7cnn8ccc(N9C[C@H]%10C[C@@H]9CO%10)nc78)c(C(F)F)n6)CC5)C4)C3)c21 (stereo partly shown) [I-599] | > 0.2 | < 0.01
Cn1c(=O)n(C2CCC(=O)NC2=O)c2cccc(C#CCOC3CN(C[C@H]4CC[C@H](n5cc(NC(=O)c6cnn7ccc(N8C[C@H]9C[C@@H]8CO9)nc67)c(C(F)F)n5)CC4)C3)c21 (stereo partly shown) [I-600] | > 0.2 | > 0.2
Cn1c(=O)n(C2CCC(=O)NC2=O)c2cccc(N3CC(OC4CCN(C[C@H]5CC[C@H](n6cc(NC(=O)c7cnn8ccc(N9C[C@H]%10C[C@@H]9CO%10)nc78)c(C(F)F)n6)CC5)CC4)C3)c21 (stereo partly shown) [I-601] | > 0.2 | > 0.2
